Key:
[1] = High-fat-diet-induced obesity in mice: growth curves, body weight and eWAT mass; assay type: in vivo; conditions: LP-533401 30 mg/kg orally daily, 10 weeks, SCD or HFD
Text: The generation of Tph^flox/flox mice, Adipoq-cre mice, and aP2-CreERT2 mice has previously been reported^17,30,31. C57BL/6J mice, Htr3a-targeted KO mice (B6.129X1-Htr3a^tm1jul/J, Htr3a KO) and leptin-deficient ob/ob mice (B6.V-Lep^ob/J) were purchased from the Jackson Laboratory (Bar Harbor, Me., USA). To create the adipose tissue-specific Tph1 KO mice, Tph1^flox/flox mice were crossed with Adipoq-Cre mice (Tph1 FKO mice) and aP2-CreERT2 mice (Tph1 AFKO mice). The mice were housed in climate-controlled, specific pathogen-free (SPF) barrier facilities under a 12-h light-dark cycle, and chow and water were provided ad libitum. The Institutional Animal Care and Use Committee at the Korea Advanced Institute of Science and Technology approved the experimental protocols for this study. Htr3a KO mice and Tph1^flox/flox mice were backcrossed with C57BL/6J mice for more than 10 generations. Cre-recombination of 6-week-old Tph1 AFKO mice was induced by intraperitoneal (IP) injection of 5 doses of 2 mg of tamoxifen (Sigma) for 1 week. We fed male mice (aged 8˜10 weeks) either on SCD (standard chow diet; 12% fat calories, Purina Laboratory Rodent Diets 38057) or HFD (60% fat calories, Research Diets D12492). PBS or 300 mg/kg PCPA was administered as a daily intraperitoneal injection. LP-533401 was dissolved in PEG-400 and 5% dextrose (40:60 ratio). Vehicle or 30 mg/kg LP-533401 was administered daily with a feeding needle. We randomly divided C57BL/6J mice into 2-4 groups. For transgenic mice, we compared data between KO mice and their WT littermates. No blinding was done.

[2] = Glucose tolerance test and insulin tolerance test; assay type: in vivo, mice; conditions: LP-533401 30 mg/kg orally, 10 weeks, HFD-fed mice vs HFD-fed control
Description: For the glucose tolerance tests, the mice were administered 2 g/kg D-glucose in PBS after overnight fasting. For the insulin tolerance tests, the mice were intraperitoneally injected with insulin (0.75 U/kg) after being fasted for 4 h. The blood glucose levels in blood samples obtained from tail veins 0, 15, 30, 45, 60, 90 and 120 min after injection were measured using a Gluco DR Plus glucometer (Allmedicus).

[3] = reference 18; cited from earlier work
Htr3 [4] = molecular target: T1, Htr3 (Mus musculus, UniProt P23979); test: Western blot for phosphorylation of PKA pathway components in IBAs; assay type: cell-based; conditions: IBAs, Htr3 agonist treatment
T1 construct: we explored the direct actions of Htr3 on BAT using immortalized brown adipocytes (IBAs); endogenous in cells; host or cells: differentiated immortalized brown adipocytes (IBAs)
T1 sequence (P23979 24-489): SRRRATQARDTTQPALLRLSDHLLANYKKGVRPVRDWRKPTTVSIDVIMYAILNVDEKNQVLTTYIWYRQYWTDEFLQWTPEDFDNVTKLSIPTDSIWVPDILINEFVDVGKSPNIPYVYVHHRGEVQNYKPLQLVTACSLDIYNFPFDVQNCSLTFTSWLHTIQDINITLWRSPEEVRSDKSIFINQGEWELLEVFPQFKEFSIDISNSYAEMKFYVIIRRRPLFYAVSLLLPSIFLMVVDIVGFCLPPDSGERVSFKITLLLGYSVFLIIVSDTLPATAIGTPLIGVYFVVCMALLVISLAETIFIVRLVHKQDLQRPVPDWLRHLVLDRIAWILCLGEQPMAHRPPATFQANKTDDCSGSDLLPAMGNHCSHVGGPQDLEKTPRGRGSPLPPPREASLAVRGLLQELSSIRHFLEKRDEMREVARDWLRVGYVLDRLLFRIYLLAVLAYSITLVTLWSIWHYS
T1 sequence (Q9JHJ5 22-437 partner): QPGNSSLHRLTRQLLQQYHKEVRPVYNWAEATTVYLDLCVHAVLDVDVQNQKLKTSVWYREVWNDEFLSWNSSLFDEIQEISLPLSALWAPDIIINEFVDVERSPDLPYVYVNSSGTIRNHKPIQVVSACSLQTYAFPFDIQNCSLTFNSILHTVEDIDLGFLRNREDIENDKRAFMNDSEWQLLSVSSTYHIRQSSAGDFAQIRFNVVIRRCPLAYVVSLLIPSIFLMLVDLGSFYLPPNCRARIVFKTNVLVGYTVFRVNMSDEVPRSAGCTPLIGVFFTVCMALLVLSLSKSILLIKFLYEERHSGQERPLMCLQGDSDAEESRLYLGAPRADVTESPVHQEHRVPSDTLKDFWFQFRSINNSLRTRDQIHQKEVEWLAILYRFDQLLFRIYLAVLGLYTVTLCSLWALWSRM
Description: (§1) IBAs were cultured in DMEM supplemented with 10% FBS and P/S in a humidified atmosphere of 5% CO2 at 37° C.^32. After reaching 95% confluence, the cells were induced to differentiate using DMEM with 10% FBS, 0.5 μg/mL insulin, 1 nM T3, 0.125 mM indomethacin, 2 μg/mL dexamethasone, 0.5 μM IBMX and P/S (day 0). After two days, the medium was replaced with DMEM supplemented with 10% FBS, 0.5 μg/mL insulin, 1 nM T3 and P/S (day 2), and it was changed every two days from days 4 to 8. We confirmed that these cell lines are free from Mycoplasma infection.
Whole-cell lysates were extracted by incubating cells in RIPA buffer (25 mM Tris-HCl pH 7.6, 150 mM NaCl, 1% NP-40, 1% sodium deoxycholate, 0.1% SDS) plus protease inhibitors (Roche). Supernatant was collected following a brief centrifuge, and protein concentrations in the supernatant were determined using the BCA Protein Assay Kit (Thermo Scientific, Rockford, Ill., USA). The cell lysates were then mixed with equal volumes of 2× Laemmli buffer (4% SDS, 20% glycerol, 10% 2-mercaptoethanol, 0.01% bromophenol blue, and 120 mM Tris-HCl, pH 6.8) and boiled for 5 min at 95° C. Then, the protein samples were separated by SDS-PAGE and transferred to a PVDF membrane (Millipore). […]

Htr3 [5] = molecular target: T1, Htr3; test: Real-time PCR of thermogenic genes in IBAs; assay type: cell-based; conditions: 2 h after Htr3 agonist treatment
Description: as §1
Total RNA was extracted from the mouse tissues or cell lines using TRIzol reagent (Invitrogen) according to the manufacturer's protocol. After TURBO DNase (Invitrogen) treatment, 2 μg of total RNA was used to generate complementary DNA with Superscript III reverse transcriptase (Invitrogen). To analyze gene expression, real-time PCR was performed with a ViiA 7 Real-Time PCR system (Applied Biosystems) and the Power SYBR Green PCR master mix (Applied Biosystems). Relative quantification was based on the ddCt method, and ActB was used as an endogenous control (internal control).

Htr3 [6] = molecular target: T1, Htr3; test: cAMP assay (competitive ELISA) in immortalized brown adipocytes; assay type: cell-based; conditions: IBAs, 1 uM ondansetron or 100 nM m-CPBG, 15 min
Description: as §1
Differentiated IBAs were treated with 1 uM ondansetron or 100 nM m-CPBG or 1 uM CL-316243 for 15 min. 1 uM […] was used as a positive control. The cAMP competitive ELISA (Promega) was performed according to the manufacturer's instruction. Briefly, cAMP was extracted by adding 0.1 M HCl with 0.5% triton X-100 to the cells. After centrifugation at 600 g for 10 min, the supernatant was used for the determination of cAMP levels by competitive cAMP ELISA.

SMILES	anti-obesity effects (growth curves) [1]	glucose tolerance (IPGTT) [2]	crossing of the blood-brain barrier [3]	phosphorylation of HSL and PKA substrate (Htr3 [4])	Ucp1 mRNA level (Htr3 [5])	cAMP level in the absence of β3AR agonist (Htr3 [6])
Nc1nc(OC(c2ccc(-c3cccc(F)c3)cc2)C(F)(F)F)cc(-c2ccc(C[C@H](N)C(=O)O)cc2)n1 (stereo partly drawn) [LP-533401]	also observed	improved glucose tolerance	cannot cross the blood-brain barrier	–	–	–
N=C(N)NC(=N)Nc1cccc(Cl)c1 [m-CPBG, 1-(m-chlorophenyl)-biguanide]	–	–	–	decreased	decreased	did not affect cAMP levels
